In US11584763B2, “Chromenopyridine derivatives as phosphatidylinositol phosphate kinase inhibitors” (HIBERCELL, INC., priority 2017, dated 2023):

Legend:
[1] = target: T1, PIP4K 2A (Homo sapiens, UniProt P48426); test: ADP-glo kinase assay PIP4K 2A; type: biochemical; set-up: 4 nM PIP4K2A (full length protein, SignalChem); purchased SignalChem; settings: compounds listed under IC50 bin headings
T1 sequence (P48426 1-406): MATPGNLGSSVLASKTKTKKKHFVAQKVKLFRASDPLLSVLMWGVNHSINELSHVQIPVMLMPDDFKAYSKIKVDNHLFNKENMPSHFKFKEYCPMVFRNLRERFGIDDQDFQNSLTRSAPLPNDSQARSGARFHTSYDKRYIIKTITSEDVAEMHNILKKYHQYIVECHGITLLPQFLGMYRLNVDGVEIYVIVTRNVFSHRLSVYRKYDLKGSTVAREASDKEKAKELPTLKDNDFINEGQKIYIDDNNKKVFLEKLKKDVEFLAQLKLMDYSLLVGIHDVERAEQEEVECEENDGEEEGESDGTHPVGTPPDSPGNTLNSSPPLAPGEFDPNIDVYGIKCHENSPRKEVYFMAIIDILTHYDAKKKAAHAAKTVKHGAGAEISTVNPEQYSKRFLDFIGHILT
Outline: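 Full-length PIP4K2A was pre-incubated 15 min at RT with compound in 20 mM MOPS pH 7.2, 25 mM MgCl2, 0.005% Tween 20. The enzyme mix held 4 nM kinase and 100 μM PI(5)P diC8, and ATP was added from a 60 μM solution. After 1 h at RT, ADP-Glo luminescence gave % inhibition versus DMSO, fitted to IC50 over 10 threefold dilutions.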

[2] = target: T2, PIP4K2B (Homo sapiens, UniProt P78356); test: Trans-FI P kinase assay PIP4K2B (PIP4KtypeIIB inhibition assay); type: biochemical; settings: compounds listed under IC50 bin headings; 100 uM GTP; read-out: Trans-FI P kinase assays: PIP4K2B IC50
T2 construct: made in house; host or cells: E. coli
T2 sequence (P78356 1-416): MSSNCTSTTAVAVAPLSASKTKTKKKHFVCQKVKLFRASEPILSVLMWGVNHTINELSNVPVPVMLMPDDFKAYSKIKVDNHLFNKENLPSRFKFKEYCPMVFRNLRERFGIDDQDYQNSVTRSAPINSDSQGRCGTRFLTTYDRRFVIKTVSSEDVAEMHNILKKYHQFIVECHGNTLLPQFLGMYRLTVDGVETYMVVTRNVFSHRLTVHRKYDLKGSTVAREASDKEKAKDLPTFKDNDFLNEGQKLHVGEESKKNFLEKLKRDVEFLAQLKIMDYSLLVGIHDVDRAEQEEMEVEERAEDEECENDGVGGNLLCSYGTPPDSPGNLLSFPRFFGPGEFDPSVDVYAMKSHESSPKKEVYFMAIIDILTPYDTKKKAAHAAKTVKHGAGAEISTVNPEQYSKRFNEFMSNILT
Outline: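 GST-tagged human PIP4K2B (5 nM, E. coli-expressed) preincubated 1 h at 27 C with compound (top 4.8 uM, 5% DMSO), then reacted 2 h with 100 uM GTP and 80 uM PI5P/DOPE vesicles in HEPES pH 7.3, MgCl2, Triton X-100. GDP detected by Transcreener FI fluorescence via calibration curve; IC50 from % activity vs log[inhibitor].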

| Compound | IC50 [1] [nM] | IC50 [2] [nM] |
| --- | --- | --- |
| CC(=O)Nc1cc(Nc2cc3c(cn2)-c2ccc(N4CCCC4=O)cc2OC3C)cnn1 (stereo not drawn) [Example 129, N-(5-((5-methyl-8-(2-oxopyrrolidin-1-yl)-5H-chromeno[4,3-c]pyridin-3-yl)amino)pyridazin-3-yl)acetamide] | 1 to 10 | 10 to 100 |
| CC1Oc2cc(N3CCCC3=O)ccc2-c2cnc(Nc3cncc(NC(=O)C4Cc5ccccc5C4)c3)cc21 (stereo not drawn) [Example 138, N-(5-((5-methyl-8-(2-oxopyrrolidin-1-yl)-5H-chromeno[4,3-c]pyridin-3-yl)amino)pyridin-3-yl)-2,3-dihydro-1H-indene-2-carboxamide] | 10 to 100 | 10 to 100 |
| CC1Oc2cc(N3CCCC3=O)ccc2-c2cnc(Nc3cnc4c(c3)N3C(=O)C5(CC5)C[C@H]3CO4)cc21 (stereo partly drawn) [Example 157, (6a′S)-2′-((5-methyl-8-(2-oxopyrrolidin-1-yl)-5H-chromeno[4,3-c]pyridin-3-yl)amino)-6a′,7′-dihydro-6′H,9′H-spiro[cyclopropane-1,8′-pyrido[2,3-b]pyrrolo[1,2-d][1,4]oxazin]-9′-one] | ≤ 1 | 1 to 10 |
| CC1Oc2cc(N3CCCC3=O)ccc2-c2cnc(Nc3cncc(NC(=O)c4ccncc4)c3)cc21 (stereo not drawn) [Example 114, N-(5-((5-methyl-8-(2-oxopyrrolidin-1-yl)-5H-chromeno[4,3-c]pyridin-3-yl)amino)pyridin-3-yl)isonicotinamide] | 1 to 10 | 10 to 100 |
| CC1Oc2cc(N3CCCC3=O)ccc2-c2cnc(Nc3cncc(NC(=O)c4ccc5c(c4)B(O)OC5)c3)cc21 (stereo not drawn) [Example 117, 1-hydroxy-N-(5-((5-methyl-8-(2-oxopyrrolidin-1-yl)-5H-chromeno[4,3-c]pyridin-3-yl)amino)pyridin-3-yl)-1,3-dihydrobenzo[c][1,2]oxaborole-6-carboxamide] | 1 to 10 | 10 to 100 |
| CC1Oc2cc(N3CCCC3=O)ccc2-c2cnc(Nc3cncc(NC(=O)c4cccc5c4OCO5)c3)cc21 (stereo not drawn) [Example 137, N-(5-((5-methyl-8-(2-oxopyrrolidin-1-yl)-5H-chromeno[4,3-c]pyridin-3-yl)amino)pyridin-3-yl)benzo[d][1,3]dioxole-4-carboxamide] | 1 to 10 | 10 to 100 |
| CC1Oc2cc(N3CCCC3=O)ccc2-c2cnc(Nc3cncc(NC(=O)c4cccnc4)c3)cc21 (stereo not drawn) [Example 113, N-(5-((5-methyl-8-(2-oxopyrrolidin-1-yl)-5H-chromeno[4,3-c]pyridin-3-yl)amino)pyridin-3-yl)nicotinamide] | 1 to 10 | 10 to 100 |
| CC1Oc2cc(N3CCCC3=O)ccc2-c2cnc(Nc3cncc(NC(=O)c4ccc(NC=O)c(O)c4)c3)cc21 (stereo not drawn) [Example 109A, 4-formamido-3-hydroxy-N-(5-((5-methyl-8-(2-oxopyrrolidin-1-yl)-5H-chromeno[4,3-c]pyridin-3-yl)amino)pyridin-3-yl)benzamide] | 1 to 10 | 10 to 100 |
| CC1C[C@H]2COc3ncc(Nc4cc5c(cn4)-c4cc(F)c(N6CCCC6=O)cc4OC5C)cc3N2C1=O (stereo partly drawn) [Example 152, (6aS)-2-((9-fluoro-5-methyl-8-(2-oxopyrrolidin-1-yl)-5H-chromeno[4,3-c]pyridin-3-yl)amino)-8-methyl-6,6a,7,8-tetrahydro-9H-pyrido[2,3-b]pyrrolo[1,2-d][1,4]oxazin-9-one] | ≤ 1 | 1 to 10 |
| CC1Oc2cc(N3CCCC3=O)ccc2-c2cnc(Nc3cncc(NC(=O)C4Cc5ccccc5O4)c3)cc21 (stereo not drawn) [Example 142, N-(5-((5-methyl-8-(2-oxopyrrolidin-1-yl)-5H-chromeno[4,3-c]pyridin-3-yl)amino)pyridin-3-yl)-2,3-dihydrobenzofuran-2-carboxamide] | 10 to 100 | 100 to 1000 |
| CC1Oc2cc(N3CCCC3=O)ccc2-c2cnc(Nc3cncc(NC(=O)c4cc5ccccc5[nH]4)c3)cc21 (stereo not drawn) [Example 141, N-(5-((5-methyl-8-(2-oxopyrrolidin-1-yl)-5H-chromeno[4,3-c]pyridin-3-yl)amino)pyridin-3-yl)-1H-indole-2-carboxamide] | 1 to 10 | 10 to 100 |
| CC1Oc2cc(N3CCCC3=O)ccc2-c2cnc(Nc3cncc(NC(=O)c4cccc5c4COB5O)c3)cc21 (stereo not drawn) [Example 118, 1-hydroxy-N-(5-((5-methyl-8-(2-oxopyrrolidin-1-yl)-5H-chromeno[4,3-c]pyridin-3-yl)amino)pyridin-3-yl)-1,3-dihydrobenzo[c][1,2]oxaborole-4-carboxamide] | 1 to 10 | 10 to 100 |
| CC1Oc2cc(N3CCCC3=O)ccc2-c2cnc(Nc3cncc(NC(=O)c4cncc(N)n4)c3)cc21 (stereo not drawn) [Example 126, 6-amino-N-(5-((5-methyl-8-(2-oxopyrrolidin-1-yl)-5H-chromeno[4,3-c]pyridin-3-yl)amino)pyridin-3-yl)pyrazine-2-carboxamide] | 1 to 10 | 10 to 100 |

More lines, now with the values ahead:

| IC50 [1] [nM] | IC50 [2] [nM] | Compound |
| --- | --- | --- |
| 1 to 10 | 10 to 100 | CC1Oc2cc(N3CCCC3=O)ccc2-c2cnc(Nc3cncc(NC(=O)c4cccc5[nH]cnc45)c3)cc21 (stereo not drawn) [Example 196, N-(5-((5-methyl-8-(2-oxopyrrolidin-1-yl)-5H-chromeno[4,3-c]pyridin-3-yl)amino)pyridin-3-yl)-1H-benzo[d]imidazole-7-carboxamide] |
| 1 to 10 | 1 to 10 | O=C1CCCN1c1ccc(-c2ccc(Nc3cnc4c(c3)N3C(=O)C5(CC5)C[C@H]3CO4)nc2)cc1F [Example 197, (S)-2′-((5-(3-fluoro-4-(2-oxopyrrolidin-1-yl)phenyl)pyridin-2-yl)amino)-6a′,7′-dihydro-6′H,9′H-spiro[cyclopropane-1,8′-pyrido[2,3-b]pyrrolo[1,2-d][1,4]oxazin]-9′-one] |
| 1 to 10 | 10 to 100 | CC1Oc2cc(N3CCCC3=O)ccc2-c2cnc(Nc3cncc(NC(=O)CCc4cccc(NC(=O)/C=C/CN(C)C)c4)c3)cc21 (stereo not drawn) [Example 176, (E)-4-(dimethylamino)-N-(3-(3-((5-((5-methyl-8-(2-oxopyrrolidin-1-yl)-5H-chromeno[4,3-c]pyridin-3-yl)amino)pyridin-3-yl)amino)-3-oxopropyl)phenyl)but-2-enamide] |
| 1 to 10 | 1 to 10 | O=C1CCCN1c1ccc2c(c1)OCc1cc(Nc3cnc4c(c3)N3C(=O)CC[C@@H]3CO4)ncc1-2 [Example 182, (R)-2-((8-(2-oxopyrrolidin-1-yl)-5H-chromeno[4,3-c]pyridin-3-yl)amino)-6,6a,7,8-tetrahydro-9H-pyrido[2,3-b]pyrrolo[1,2-d][1,4]oxazin-9-one] |
| ≤ 1 | 1 to 10 | CC1Oc2cc(N3CCCC3=O)ccc2-c2cnc(Nc3cnc4c(c3)N3C(=O)C(O)C[C@H]3CO4)cc21 (stereo partly drawn) [Example 206, (6aS)-8-hydroxy-2-((5-methyl-8-(2-oxopyrrolidin-1-yl)-5H-chromeno[4,3-c]pyridin-3-yl)amino)-6,6a,7,8-tetrahydro-9H-pyrido[2,3-b]pyrrolo[1,2-d][1,4]oxazin-9-one] |
| 1 to 10 | 10 to 100 | CC1Oc2cc(N3CCCC3=O)c(F)cc2-c2cnc(Nc3cnc4c(c3)OCCO4)cc21 (stereo not drawn) [Example 166, 1-(3-((2,3-dihydro-[1,4]dioxino[2,3-b]pyridin-7-yl)amino)-9-fluoro-5-methyl-5H-chromeno[4,3-c]pyridin-8-yl)pyrrolidin-2-one] |
| ≤ 1 | 1 to 10 | CC1Oc2cc(N3CCCC3=O)c(F)cc2-c2cnc(Nc3cnc4c(c3)N3C(=O)OC[C@H]3CO4)cc21 (stereo partly drawn) [Example 159, (3aR)-8-((9-fluoro-5-methyl-8-(2-oxopyrrolidin-1-yl)-5H-chromeno[4,3-c]pyridin-3-yl)amino)-3a,4-dihydro-1H,3H-oxazolo[3,4-d]pyrido[2,3-b][1,4]oxazin-1-one] |
| 1 to 10 | 100 to 1000 | CC1Oc2cc(N3CCCC3=O)ccc2-c2cnc(Nc3cncc(N4CCN(C)S4(=O)=O)c3)cc21 (stereo not drawn) [Example 185, 1-(5-methyl-3-((5-(5-methyl-1,1-dioxido-1,2,5-thiadiazolidin-2-yl)pyridin-3-yl)amino)-5H-chromeno[4,3-c]pyridin-8-yl)pyrrolidin-2-one] |
